This passage reports IC50 results from US11065253B2, “Arylquinazolines” (Merck Patent GmbH, priority 2013, dated 2021).

For the experiment, the system named is phospho-serine 2056 DNA-PK in HCT116 cells. The experiment in a line: DNA-PK phosphorylation at serine 2056 (cellular), ELISA in bleomycin-treated HCT116 cells. The experiment is classed as cell-based. Conditions: read-out: IC50 pDNA-PK. The method, boiled down:
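HCT116 cells grown overnight were co-treated with 10 μM bleomycin and test compound for 6 h at 37 °C. Phospho-DNA-PK was quantified by chemiluminescent ELISA and normalised to total DNA-PKcs signal, with DMSO control as blank.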

Where [1] appears, read: Homo sapiens, HCT-116, phospho-serine 2056 DNA-PK, bleomycin-treated HCT116 cells.
Where [2] appears, read: cellular DNA-PK phosphorylation at serine 2056, HCT116 cells.
Setting [3] is: Homo sapiens, HCT-116, cellular DNA-PK phosphorylation at serine 2056, HCT116 cells.
Setting [4] is: Homo sapiens, HCT-116, phospho-serine 2056 DNA-PK, bleomycin-treated HCT116 cells, class symbols A-D.
Setting [5] is: Homo sapiens, HCT-116, 6 h, cellular, HCT116 cells, 10 μM bleomycin, six hours.

Structures are written as SMILES. Like-named read-outs stand apart in the source and are kept apart here. A value given as a limit tells only on which side of the number the result lay.

In general, IC50 refers to the concentration at which inhibition is half-maximal.

In the case of `Cn1nc(C(O)c2ccc(F)c(-c3ncnc4cc(N5CCOCC5)ccc34)c2)ccc1=O` (centres unmarked) [Example 326, 6-{[4-Fluoro-3-(7-morpholin-4-yl-quinazolin-4-yl)-phenyl]hydroxy-methyl}-2-methyl-2H-pyridazin-3-one], under setting [1], the IC50 lay in the range of 0.5 to 5 µM.

As for `Cc1nccnc1C(O)c1cc(-c2ncnc3cc(N4CCOCC4)cnc23)c(F)cc1Cl` (centres unmarked) [Example 240, [2-Chloro-4-fluoro-5-(7-morpholin-4-yl-pyrido[3,2-d}-pyrimidin-4-yl)-phenyl]-(3-methyl-pyrazin-2-yl)-methanol], under setting [1], the IC50 lay in the range of 0.5 to 5 µM.

Turning to `COc1cncnc1C(O)c1cc(-c2ncnc3cc(N4CCOCC4)ccc23)ccc1Cl` (centres unmarked) [Example 413, [2-Chloro-5-(7-morpholin-4-yl-quinazolin-4-yl)-phenyl]-(5-methoxy-pyrimidin-4-yl)-methanol], the IC50 under setting [2] lay in the range of 0.5 to 5 µM.

`Cc1cc(C(O)c2ccc(F)c(-c3ncnc4cc(N5CCOCC5)ccc34)c2)n(C)c(=O)c1` (centres unmarked) [Example 340, 6-{[4-Fluoro-3-(7-morpholin-4-yl-quinazolin-4-yl)-phenyl]hydroxy-methyl}-1,4-dimethyl-1H-pyridin-2-one]: the IC50 under setting [1] lay within 0.5 to 5 µM.

With `OC(c1cc(-c2ncnc3cc(N4CCOCC4)ccc23)ccc1Cl)c1ncnc2occc12` (centres unmarked) [Example 416, [2-Chloro-5-(7-morpholin-4-yl-quinazolin-4-yl)-phenyl]furo[2,3-d}-pyrimidin-4-yl-methanol], the IC50 under setting [3] lay within 0.5 to 5 µM.

As to `Cc1csc(C(O)c2cc(-c3ncnc4cc(N5CCOCC5)ccc34)c(F)cc2Cl)n1` (centres unmarked) [Example 181, [2-Chloro-4-fluoro-5-(7-morpholin-4-yl-quinazolin-4-yl)-phenyl]-(4-methyl-thiazol-2-yl)-methanol], the IC50 under setting [4] lay within 0.5 to 5 µM.

For `COc1nccnc1C(C(N)=O)c1cc(-c2ncnc3cc(N4CCOCC4)ccc23)ccc1F` (centres unmarked) [Example 316, 2-[2-Fluoro-5-(7-morpholin-4-yl-quinazolin-4-yl)-phenyl]-2-(3-methoxy-pyrazin-2-yl)acetamide], under setting [1], the IC50 lay within 5 to 10 µM.

Take `[2H]C1([2H])OC([2H])([2H])C([2H])([2H])N(c2ccc3c(-c4cc(C(O)c5nccnc5OC)c(Cl)cc4F)ncnc3c2)C1([2H])[2H]` (centres unmarked) [Example 242, [2-Chloro-4-fluoro-5-[7-(2,2,3,3,5,5,6,6-octadeuterio-morpholin-4-yl)quinazolin-4-yl]phenyl]-(3-methoxypyrazin-2-yl)methanol]: the IC50 (phospho-serine 2056 DNA-PK, bleomycin-treated HCT116 cells) was < 0.5 µM.

Turning to `COc1ccc(C(O)c2cc(-c3ncnc4cc(N5CCOCC5)ccc34)c(F)cc2F)cc1` (centres unmarked) [Example 120, [2,4-Difluoro-5-(7-morpholin-4-yl-quinazolin-4-yl)-phenyl]-(4-methoxyphenyl)-methanol], the IC50 under setting [4] lay within 0.5 to 5 µM.

Turning to `COc1ccc(C(O)c2cc(-c3ncnc4cc(N5CCOCC5)ccc34)c(F)cc2F)c(F)c1` (centres unmarked) [Example 124, [2,4-Difluoro-5-(7-morpholin-4-yl-quinazolin-4-yl)-phenyl]-(2-fluoro-4-methoxy-phenyl)methanol], under setting [4], the IC50 was in the range of 0.5 to 5 µM.

As for `COc1nccnc1C(C(N)=O)c1cc(-c2ncnc3cc(N4CCOCC4)ccc23)ccc1Cl` (centres unmarked) [Example 304, 2-[2-Chloro-5-(7-morpholin-4-yl-quinazolin-4-yl)-phenyl]-2-(3-methoxy-pyrazin-2-yl)acetamide], the IC50 under setting [1] was 5 to 10 µM.

Regarding `CC(O)c1csc(C(O)c2cc(-c3ncnc4cc(N5CCOCC5)ccc34)c(F)cc2Cl)n1` (centres unmarked) [Example 201, 1-(2-{[2-Chloro-4-fluoro-5-(7-morpholin-4-yl-quinazolin-4-yl)-phenyl]hydroxy-methyl}thiazol-4-yl)-ethanol], the IC50 under setting [4] lay within 0.5 to 5 µM.

In the case of `OC(c1cccc(-c2ncnc3cc(N4CCOCC4)ccc23)c1)c1nccs1` (centres unmarked) [Example 150, [3-(7-Morpholin-4-ylquinazolin-4-yl)-phenyl]thiazol-2-yl-methanol], the IC50 under setting [4] was 5 to 10 µM.

On to `COc1nccnc1C(O)c1cc(-c2ncnc3cc(N4CCOCC4)ccc23)c(F)cc1F` (centres unmarked) [Example 467, [2,4-Difluoro-5-(7-morpholin-4-yl-quinazolin-4-yl)-phenyl]-(3-methoxy-pyrazin-2-yl)-methanol], for which the IC50 under setting [2] was < 0.5 µM.

Consider `OC(c1cc(F)c(F)c(-c2ncnc3cc(N4CCOCC4)ccc23)c1)c1nccs1` (centres unmarked) [Example 171, [3,4-Difluoro-5-(7-morpholin-4-yl-quinazolin-4-yl)-phenyl]thiazol-2-yl-methanol], for which the IC50 under setting [4] was 0.5 to 5 µM.

Take `OCc1csc(C(O)c2cc(-c3ncnc4cc(N5CCOCC5)ccc34)c(F)cc2Cl)n1` (centres unmarked) [Example 142, [2-Chloro-4-fluoro-5-(7-morpholin-4-yl-quinazolin-4-yl)-phenyl]-(4-hydroxymethyl-thiazol-2-yl)-methanol]: the IC50 under setting [4] was 0.5 to 5 µM.

As for `Nc1cncc(C(O)c2ccc(F)c(-c3ncnc4cc(N5CCOCC5)ccc34)c2)n1` (centres unmarked) [Example 302, (6-Amino-pyrazin-2-yl)-[4-fluoro-3-(7-morpholin-4-yl-quinazolin-4-yl)-phenyl]methanol], the IC50 under setting [1] is 5 to 10 µM.

For `OC(c1ccccn1)c1cc(-c2ncnc3cc(N4CCOCC4)ccc23)c(F)cc1F` (centres unmarked) [Example 218, [2,4-Difluoro-5-(7-morpholin-4-yl-quinazolin-4-yl)-phenyl]pyridin-2-yl-methanol], the IC50 under setting [4] was < 0.5 µM.

In the case of `CCn1nc(C(O)c2cc(-c3ncnc4cc(N5CCOCC5)ccc34)c(F)cc2Cl)ccc1=O` (centres unmarked) [Example 93, 6-{[2-Chloro-4-fluoro-5-(7-morpholin-4-yl-quinazolin-4-yl)phenyl]-hydroxymethyl}-2-ethyl-2H-pyridazin-3-one], the IC50 under setting [5] is < 0.5 µM.

`COc1ccc(C(O)c2cc(-c3ncnc4cc(N5CCOCC5)ccc34)ccc2Cl)nn1` (centres unmarked) [Example 458, [2-Chloro-5-(7-morpholin-4-yl-quinazolin-4-yl)-phenyl]-(6-methoxy-pyridazin-3-yl)-methanol]: the IC50 under setting [3] was < 0.5 µM.

For the compound `COc1ccc(C(O)c2cc(-c3ncnc4cc(N5CCOCC5)ccc34)c(F)cc2F)nc1` (centres unmarked) [Example 224, [2,4-Difluoro-5-(7-morpholin-4-yl-quinazolin-4-yl)-phenyl]-(5-methoxy-pyridin-2-yl)methanol], the IC50 under setting [4] lay in the range of 0.5 to 5 µM.

Take `Cc1cnc(C(C(N)=O)c2cc(-c3ncnc4cc(N5CCOCC5)ccc34)c(F)cc2Cl)c(C)n1` (centres unmarked) [Example 301, 2-[2-Chloro-4-fluoro-5-(7-morpholin-4-yl-quinazolin-4-yl)-phenyl]-2-(3,5-dimethyl-pyrazin-2-yl)acetamide]: under setting [1], the IC50 fell in the range of 0.5 to 5 µM.

Consider `CNCc1csc(C(O)c2cc(-c3ncnc4cc(N5CCOCC5)ccc34)c(F)cc2Cl)n1` (centres unmarked) [Example 143, [2-Chloro-4-fluoro-5-(7-morpholin-4-yl-quinazolin-4-yl)-phenyl]-(4-methylamino-methyl-thiazol-2-yl)-methanol], for which the IC50 under setting [4] is 5 to 10 µM.

Take `OC(c1cc(-c2ncnc3cc(N4CCOCC4)ccc23)ccc1F)c1ncnc2ccoc12` (centres unmarked) [Example 374, [2-Fluoro-5-(7-morpholin-4-yl-quinazolin-4-yl)-phenyl]furo[3,2-d}-pyrimidin-4-yl-methanol]: the IC50 under setting [3] is 0.5 to 5 µM.

In the case of `COC(c1ccc(F)c(-c2ncnc3cc(N4CCOCC4)ccc23)c1)c1nccnc1C` (centres unmarked) [Example 353, 4-{2-Fluoro-5-[methoxy-(3-methyl-pyrazin-2-yl)methyl]-phenyl}-7-morpholin-4-ylquinazoline (Ena 2)], the concentration for half-maximal inhibition (IC50) under setting [1] lay within 10 to 30 µM.

Take `COc1cnc(Cl)c(C(O)c2ccc(F)c(-c3ncnc4cc(N5CCOCC5)ccc34)c2)c1` (centres unmarked) [Example 22, (2-Chloro-5-methoxy-pyridin-3-yl)-[4-fluoro-3-(7-morpholin-4-yl-quinazolin-4-yl)phenyl]-methanol]: under setting [5], the IC50 is < 0.5 µM.

For the compound `COc1ccc(C(O)c2cc(-c3ncnc4cc(N5CCOCC5)ccc34)c(F)cc2F)cn1` (centres unmarked) [Example 221, [2,4-Difluoro-5-(7-morpholin-4-yl-quinazolin-4-yl)-phenyl]-(6-methoxy-pyridin-3-yl)methanol], the IC50 under setting [4] is 0.5 to 5 µM.

Turning to `Cc1cccnc1C(O)c1ccc(F)c(-c2ncnc3cc(N4CCOCC4)ccc23)c1` (centres unmarked) [Example 472, [4-Fluoro-3-(7-morpholin-4-yl-quinazolin-4-yl)-phenyl]-(3-methyl-pyridin-2-yl)methanol], the IC50 under setting [2] was < 0.5 µM.

As for `Cc1nccnc1C(O)c1ccc(F)c(-c2ncnc3cc(N4CCOCC4)cnc23)c1` (centres unmarked) [Example 237, [4-Fluoro-3-(7-morpholin-4-yl-pyrido[3,2-d}-pyrimidin-4-yl)-phenyl]-(3-methyl-pyrazin-2-yl)-methanol], the IC50 under setting [1] was < 0.5 µM.

With `CC(C#N)Oc1ccc(C(O)c2cc(-c3ncnc4cc(N5CCOCC5)ccc34)c(F)cc2Cl)nn1` (centres unmarked) [Example 101, 2-(6-{[2-Chloro-4-fluoro-5-(7-morpholin-4-yl-quinazolin-4-yl)-phenyl]hydroxy-methyl}pyridazin-3-yloxy)propionitrile], the IC50 (phospho-serine 2056 DNA-PK, bleomycin-treated HCT116 cells, class symbols A-D) was < 0.5 µM.

Take `NC(=O)C(c1ccc(F)c(-c2ncnc3cc(N4CCOCC4)ccc23)c1)c1nnc(Cl)c2ccsc12` (centres unmarked) [Example 290, 2-(4-Chlorothieno-[2,3-d}pyridazin-7-yl)-2-[4-fluoro-3-(7-morpholin-4-yl-quinazolin-4-yl)-phenyl]acetamide]: under setting [1], the IC50 lay within 5 to 10 µM.

`COc1cncnc1C(O)c1cc(-c2ncnc3cc(N4CCOCC4)ccc23)c(F)cc1Cl` (centres unmarked) [Example 447, [2-Chloro-4-fluoro-5-(7-morpholin-4-yl-quinazolin-4-yl)-phenyl]-(5-methoxy-pyrimidin-4-yl)-methanol]: the IC50 under setting [3] was in the range of 0.5 to 5 µM.
